Measured values published in ChEMBL document CHEMBL3044687, “Microwave-assisted synthesis of some novel and potent antibacterial and antifungal compounds with biological screening” (2012).

Experiments:
Assay type in all cases: functional
Settings in all cases: read-out: DIZ
Candida albicans [1] = assay: Antifungal activity against Candida albicans at 50 ug/ml after 48 hr by disk diffusion method
Staphylococcus aureus [2] = assay: Antibacterial activity against Staphylococcus aureus at 200 ug/ml after 24 hr by disk diffusion method
Escherichia coli [3] = assay: Antibacterial activity against Escherichia coli at 200 ug/ml after 24 hr by disk diffusion method
Candida albicans [4] = assay: Antifungal activity against Candida albicans at 200 ug/ml after 48 hr by disk diffusion method
Aspergillus niger [5] = assay: Antifungal activity against Aspergillus niger at 50 ug/ml after 48 hr by disk diffusion method
Staphylococcus aureus [6] = assay: Antibacterial activity against Staphylococcus aureus at 50 ug/ml after 24 hr by disk diffusion method
Staphylococcus aureus [7] = assay: Antibacterial activity against Staphylococcus aureus at 100 ug/ml after 24 hr by disk diffusion method
Pseudomonas aeruginosa [8] = assay: Antibacterial activity against Pseudomonas aeruginosa at 200 ug/ml after 24 hr by disk diffusion method
Bacillus subtilis [9] = assay: Antibacterial activity against Bacillus subtilis at 50 ug/ml after 24 hr by disk diffusion method
Bacillus subtilis [10] = assay: Antibacterial activity against Bacillus subtilis at 200 ug/ml after 24 hr by disk diffusion method
Escherichia coli [11] = assay: Antibacterial activity against Escherichia coli at 50 ug/ml after 24 hr by disk diffusion method
Bacillus subtilis [12] = assay: Antibacterial activity against Bacillus subtilis at 100 ug/ml after 24 hr by disk diffusion method
Aspergillus niger [13] = assay: Antifungal activity against Aspergillus niger at 200 ug/ml after 48 hr by disk diffusion method
Aspergillus niger [14] = assay: Antifungal activity against Aspergillus niger at 100 ug/ml after 48 hr by disk diffusion method
Candida albicans [15] = assay: Antifungal activity against Candida albicans at 100 ug/ml after 48 hr by disk diffusion method
Escherichia coli [16] = assay: Antibacterial activity against Escherichia coli at 100 ug/ml after 24 hr by disk diffusion method
Pseudomonas aeruginosa [17] = assay: Antibacterial activity against Pseudomonas aeruginosa at 50 ug/ml after 24 hr by disk diffusion method
Pseudomonas aeruginosa [18] = assay: Antibacterial activity against Pseudomonas aeruginosa at 100 ug/ml after 24 hr by disk diffusion method

Structure (SMILES)	zone of inhibition at 50 µg/mL (Candida albicans [1])	zone of inhibition at 200 µg/mL (Staphylococcus aureus [2])	zone of inhibition at 200 µg/mL (Escherichia coli [3])	zone of inhibition at 200 µg/mL (Candida albicans [4])	zone of inhibition at 50 µg/mL (Aspergillus niger [5])	zone of inhibition at 50 µg/mL (Staphylococcus aureus [6])	zone of inhibition at 100 µg/mL (Staphylococcus aureus [7])	zone of inhibition at 200 µg/mL (Pseudomonas aeruginosa [8])	zone of inhibition at 50 µg/mL (Bacillus subtilis [9])	zone of inhibition at 200 µg/mL (Bacillus subtilis [10])	zone of inhibition at 50 µg/mL (Escherichia coli [11])	zone of inhibition at 100 µg/mL (Bacillus subtilis [12])	zone of inhibition at 200 µg/mL (Aspergillus niger [13])	zone of inhibition at 100 µg/mL (Aspergillus niger [14])	zone of inhibition at 100 µg/mL (Candida albicans [15])	zone of inhibition at 100 µg/mL (Escherichia coli [16])	zone of inhibition at 50 µg/mL (Pseudomonas aeruginosa [17])	zone of inhibition at 100 µg/mL (Pseudomonas aeruginosa [18])
O=C1N(c2ccccc2)C(=O)C(c2ccccc2)(c2ccccc2)N1Cn1cnc2ccccc21	16 mm	12 mm	18 mm	32 mm	16 mm	5 mm	10 mm	12 mm	5 mm	18 mm	6 mm	13 mm	32 mm	19 mm	24 mm	12 mm	4 mm	8 mm
O=C1NC(c2ccccc2)(c2ccccc2)C(=O)N1Cn1cnc2ccccc21	16 mm	15 mm	24 mm	32 mm	16 mm	5 mm	13 mm	14 mm	5 mm	23 mm	7 mm	13 mm	32 mm	19 mm	24 mm	15 mm	6 mm	11 mm
O=C1NC(c2ccccc2)(c2ccccc2)C(=O)N1CN1CCOCC1	10 mm	9 mm	17 mm	15 mm	10 mm	5 mm	6 mm	14 mm	4 mm	14 mm	4 mm	12 mm	12 mm	11 mm	12 mm	10 mm	4 mm	8 mm
CN(C)CN1C(=O)N(c2ccccc2)C(=O)C1(c1ccccc1)c1ccccc1	16 mm	12 mm	18 mm	19 mm	16 mm	4 mm	9 mm	14 mm	5 mm	18 mm	5 mm	10 mm	18 mm	18 mm	18 mm	13 mm	6 mm	10 mm
CN1CCN(CN2C(=O)NC(c3ccccc3)(c3ccccc3)C2=O)CC1	12 mm	20 mm	16 mm	13 mm	11 mm	6 mm	12 mm	10 mm	4 mm	19 mm	6 mm	12 mm	12 mm	12 mm	13 mm	13 mm	4 mm	6 mm
O=C1c2ccccc2C(=O)N1CN1C(=O)N(c2ccccc2)C(=O)C1(c1ccccc1)c1ccccc1	15 mm	9 mm	20 mm	20 mm	12 mm	4 mm	6 mm	10 mm	4 mm	14 mm	5 mm	10 mm	16 mm	15 mm	16 mm	12 mm	5 mm	8 mm
O=C1NC(c2ccccc2)(c2ccccc2)C(=O)N1CNc1nc2ccccc2s1	17 mm	19 mm	23 mm	32 mm	16 mm	5 mm	10 mm	20 mm	7 mm	21 mm	6 mm	10 mm	31 mm	19 mm	18 mm	15 mm	7 mm	12 mm
O=C1N(c2ccccc2)C(=O)C(c2ccccc2)(c2ccccc2)N1CNc1nc2ccccc2s1	13 mm	17 mm	17 mm	20 mm	16 mm	5 mm	10 mm	20 mm	7 mm	18 mm	6 mm	10 mm	20 mm	16 mm	15 mm	15 mm	7 mm	12 mm
CCN(CC)CN1C(=O)N(c2ccccc2)C(=O)C1(c1ccccc1)c1ccccc1	9 mm	14 mm	18 mm	11 mm	8 mm	5 mm	10 mm	14 mm	3 mm	13 mm	3 mm	9 mm	12 mm	10 mm	10 mm	13 mm	5 mm	9 mm
